Test results published in US4783528A, “Steroidal lariat ethers” (University of Miami (Department of Chemistry), priority 1987, dated 1988).

Tests used:
[1] = Cation binding constant (log KS) for Na+ in anhydrous methanol at 25° C.; conditions: decadic (log10) logarithm of equilibrium constant lariat ether + cation = complex
Description: (§1) As a result, only the macroring itself is expected to provide cation binding sites.
(§2) ^a Binding constants determined in anhydrous methanol solution at
(§3) 25° C. as described in the articles by Dishong et al., and Schultz
(§4) Notes. a. Binding constants determined in anhydrous methanol solution at 25° C. as described in the articles by Dishong et al., and Schultz et al. referred to above.
(§5) The binding constant, usually referred to as KS, is the equilibrium constant for the reaction: lariat ether + cation .revreaction. complex. The values in the table are expressed as decadic (log10) logarithms.

[2] = Cation binding constant (log KS) for K+ in anhydrous methanol at 25° C.; conditions: decadic (log10) logarithm of equilibrium constant lariat ether + cation = complex
Description: as §1, §2, §3, §4, §5

Compound	Cation Binding Constants (log KS), Na^+ [1]	Cation Binding Constants (log KS), K^+ [2]
CC(C)CCC[C@@H](C)[C@H]1CC[C@H]2[C@@H]3CC=C4C[C@@H](OC(=O)CN5CCOCCOCCOCCOCC5)CC[C@]4(C)[C@H]3CC[C@]12C [Compound 4, Cholesteryl (4-aza-15-crown-5)acetate]	4.10	4.03
CC(C)CCC[C@@H](C)[C@H]1CC[C@H]2[C@@H]3CC=C4C[C@@H](OC(=O)CN5CCOCCOCCOCCOCCOCC5)CC[C@]4(C)[C@H]3CC[C@]12C [Compound 5, Cholesteryl (4-aza-18-crown-6) acetate]	4.56	5.75
CC(C)CCC[C@@H](C)[C@H]1CC[C@H]2[C@@H]3CC[C@H]4C[C@@H](OC(=O)CN5CCOCCOCCOCCOCC5)CC[C@]4(C)[C@H]3CC[C@]12C [Compound 6, Cholestanyl (4-aza-15-crown-5) acetate]	4.12	4.03
CC(C)CCC[C@@H](C)[C@H]1CC[C@H]2[C@@H]3CC=C4C[C@@H](OC(=O)N5CCOCCOCCOCCOCC5)CC[C@]4(C)[C@H]3CC[C@]12C [Compound 8, N-(Cholesteryloxycarbonyl)aza-15-crown-5]	< 1.5	< 1.5
CC(C)CCC[C@@H](C)[C@H]1CC[C@H]2[C@@H]3CC=C4C[C@@H](OC(=O)N5CCOCCOCCOCCOCCOCC5)CC[C@]4(C)[C@H]3CC[C@]12C [Compound 9, N-(Cholesteryloxycarbonyl)aza-18-crown-6]	2.07	1.78
Cholestanyl (4-aza-18-crown-6)acetate [Compound 7]	4.58	5.78
